In the CheMixHub viscosity set:
Where “and” joins values, the source holds several entries; their conditions need not be identical. Equal values may be shown once.

How the values were obtained:
[1] = xn = mol fraction of the nth substance listed

BrC(Br)(Br)Br
Settings	viscosity [mPa·s]
298.15 K, 101 kPa	3.987

C=CCn1cc[n+](C)c1.O=S(=O)([N-]S(=O)(=O)C(F)(F)F)C(F)(F)F
Settings	viscosity [mPa·s]
298.15 K, 100 kPa	34.31

CC(=O)N(C)C
Settings	viscosity
293.15 K, 101.33 kPa	1.02 mPa·s
298 K, 101.33 kPa	0.906 mPa·s
298.15 K, 101.3 kPa	0.917 mPa·s
298.15 K, 101.33 kPa	0.92 mPa·s
298.16 K, 101 kPa	0.927 mPa·s
303.15 K, 101.3 kPa	0.8769 mPa·s
308.15 K, 101.33 kPa	0.823 mPa·s
313.15 K, 100 kPa	0.765 mPa·s
323.15 K, 101 kPa	0.673 mPa·s and 0.69 mPa·s
323.15 K, 101.33 kPa	0.72 mPa·s

CC(=O)OCCC1CCCCC1
101 kPa
Settings	viscosity [mPa·s]
300 K	2.54
310 K	2.07
320 K	1.72

CC(O)CN(C)C (stereo unspecified)
101 kPa
Settings	viscosity [mPa·s]
303.15 K	1.221
308.15 K	1.097
313.15 K	0.99
318.15 K	0.902
323.15 K	0.825

CC1CCCCC1=O (stereo unspecified)
viscosity [mPa·s]
Settings	303.15 K	308.15 K	313.15 K
100 kPa	2.225	2.168	2.111
101 kPa	2.225	2.168	–
101.33 kPa	1.406	–	–

CCC1CCCCC1
100 kPa
Settings	viscosity
298.15 K	0.797 mPa·s and 0.792 mPa·s and 0.801 mPa·s
303.15 K	0.747 mPa·s and 0.741 mPa·s
308.15 K	0.705 mPa·s and 0.697 mPa·s and 0.701 mPa·s
313.15 K	0.662 mPa·s and 0.65 mPa·s and 0.664 mPa·s
318.15 K	0.627 mPa·s and 0.617 mPa·s
323.15 K	0.585 mPa·s and 0.57 mPa·s and 0.586 mPa·s

CCCCCCCCCO
viscosity
Settings	298 K	298.15 K	303.15 K	308.15 K	318.15 K	323.15 K
100 kPa	9.587 mPa·s and 7.614 mPa·s	9.566 mPa·s	7.967 mPa·s	6.59 mPa·s and 6.675 mPa·s	4.852 mPa·s and 4.814 mPa·s	4.179 mPa·s and 4.145 mPa·s
101.3 kPa	–	8.965 mPa·s and 9.692 mPa·s	7.375 mPa·s	6.114 mPa·s and 6.494 mPa·s	–	–
101.33 kPa	–	–	7.376 mPa·s	–	–	–

CCCCCCCC[P+](CC)(CC)CC.O=[N+]([O-])c1cn[n-]c1
100 kPa
Settings	viscosity [mPa·s]
293.15 K	398
298.15 K	282
303.15 K	207
308.15 K	155
313.15 K	119
318.15 K	94
323.15 K	75

CCCCCCCC[n+]1ccn(C)c1.F[B-](F)(F)F
101 kPa
Settings	viscosity
298.15 K	336.3 mPa·s and 336.3 mPa·s
303.15 K	257.5 mPa·s
308.15 K	193.8 mPa·s
313.15 K	148.8 mPa·s
323.15 K	92.1 mPa·s

CN(C)CCCO
viscosity [mPa·s]
Settings	293.15 K	303.15 K	308.15 K	313.15 K	318.15 K	323.15 K
100 kPa	7.42	5.228	–	4.007	–	3.082
101 kPa	–	4.933	4.22	3.632	3.155	2.765

Cc1cccc2ccccc12
100 kPa
Settings	viscosity
303.15 K	2.58 mPa·s and 2.62 mPa·s and 2.582 mPa·s
323.15 K	1.75 mPa·s and 1.75 mPa·s and 1.748 mPa·s

NCCNCCO.O=S(=O)([N-]S(=O)(=O)C(F)(F)F)C(F)(F)F.[Li+]
Settings	viscosity [mPa·s]
323.15 K, 101 kPa	735.9

O=[N+]([O-])c1ccccc1O
viscosity [mPa·s]
Settings	313.15 K	323.1 K	323.15 K
101 kPa	2.755	2.68	–
101.33 kPa	–	–	2.31

CN(C)CCCO + O
viscosity [mPa·s], [1], 101 kPa
Settings	303.15 K	308.15 K	313.15 K	318.15 K	323.15 K
x1 = 0.0478	2.218	1.896	1.635	1.432	1.262
x1 = 0.0968	4.633	3.796	3.147	2.654	2.264
x1 = 0.1512	7.882	6.285	5.078	4.181	3.481
x1 = 0.2009	–	8.49	6.753	5.485	4.497
x1 = 0.2997	14.97	11.59	9.103	7.288	5.903
x1 = 0.3537	–	12.35	9.663	7.732	6.247
x1 = 0.4037	16.02	12.42	9.761	7.792	6.34
x1 = 0.4574	15.39	12	9.458	7.631	6.19
x1 = 0.499	14.63	11.46	9.077	7.329	5.974
x1 = 0.6012	12.08	9.654	7.784	6.38	5.271
x1 = 0.7274	9.064	7.42	6.133	5.114	4.304
x1 = 0.8081	7.504	6.239	5.224	4.417	3.765
x1 = 0.9112	5.925	5.02	4.261	3.658	3.168

NCCNCCO.O=S(=O)([N-]S(=O)(=O)C(F)(F)F)C(F)(F)F.[Li+] + O
[1], 323.15 K, 101 kPa
Settings	viscosity [mPa·s]
x1 = 0.0304	1.63
x1 = 0.06	3.61
x1 = 0.0997	7.57
x1 = 0.2003	27.72
x1 = 0.3009	65.11
x1 = 0.3955	114.4
x1 = 0.4975	184.4
x1 = 0.599	272.2
x1 = 0.7014	372.3
x1 = 0.8015	486.8
x1 = 0.8978	605.3

CC(N)=O + O=C1CCCCCN1
[1], 101 kPa, x2 = 0.5
Settings	viscosity [mPa·s]
303.1 K	66.67
313.1 K	32.87
323.1 K	22.69

CC(=O)N(C)C + OCCO
[1], 308.15 K, 101 kPa
Settings	viscosity [mPa·s]
x2 = 0.1632	1.166
x2 = 0.2752	1.388
x2 = 0.4068	1.611
x2 = 0.5162	2.416
x2 = 0.6269	3.622
x2 = 0.7125	4.662
x2 = 0.7974	5.882
x2 = 0.8652	7.289
x2 = 0.9339	8.916

O=[N+]([O-])c1ccccc1O + c1ccc2ncccc2c1
viscosity [mPa·s], [1], 101 kPa
Settings	303.15 K	313.15 K
x1 = 0.1011	3.361	2.66
x1 = 0.2021	3.772	2.928
x1 = 0.2913	4.125	3.16
x1 = 0.3982	4.495	3.375
x1 = 0.4731	4.68	3.465
x1 = 0.5638	4.72	3.47
x1 = 0.6538	4.595	3.41
x1 = 0.7624	4.355	3.25
x1 = 0.8131	4.22	3.151
x1 = 0.8588	4.09	3.059
x1 = 0.9056	3.95	2.955
x1 = 0.9521	–	2.855

BrC(Br)(Br)Br + c1ccccc1
[1], 298.15 K, 101 kPa
Settings	viscosity [mPa·s]
x1 = 0.1	0.8303
x1 = 0.2	1.122
x1 = 0.3	1.464
x1 = 0.4	1.839
x1 = 0.5	2.235
x1 = 0.6	2.636
x1 = 0.7	3.026
x1 = 0.8	3.391
x1 = 0.9	3.716

CCCCCCCCCO + c1ccccc1
viscosity [mPa·s], [1], 100 kPa
Settings	x2 = 0.0841	x2 = 0.1721	x2 = 0.2502	x2 = 0.3634	x2 = 0.4529	x2 = 0.5631	x2 = 0.6508	x2 = 0.7569	x2 = 0.8448	x2 = 0.9503
293.15 K	9.518	7.891	6.648	5.055	3.95	2.851	2.158	1.469	1.089	0.766
303.15 K	6.477	5.231	4.302	3.268	2.618	1.931	1.474	1.067	0.824	0.628
313.15 K	4.537	3.665	3.011	2.228	1.762	1.327	1.045	0.807	0.675	0.542
323.15 K	3.323	2.677	2.203	1.656	1.318	1.005	0.817	0.662	0.56	0.474

Cc1c[nH]cn1 + c1ccccc1
viscosity [mPa·s], [1], 101 kPa
Settings	303.15 K	323.15 K
x1 = 0.003559	0.568	–
x1 = 0.007082	0.584	–
x1 = 0.02102	0.631	0.479
x1 = 0.02167	0.636	0.48
x1 = 0.04045	0.729	0.533
x1 = 0.04194	0.748	0.543
x1 = 0.04196	0.749	–
x1 = 0.05112	0.796	0.574
x1 = 0.08708	1.004	–
x1 = 0.1079	1.123	–
x1 = 0.1551	1.496	–
x1 = 0.2018	1.869	–
x1 = 0.2491	2.344	–

CC(N)=O + c1ccncc1
[1], 298.15 K, 101 kPa
Settings	viscosity [mPa·s]
x1 = 0.0512	0.987
x1 = 0.0742	1.005
x1 = 0.111	1.088
x1 = 0.2065	1.381

O=C(Nc1ccccc1)Nc1ccccc1 + c1ccncc1
[1], 298.15 K, 101 kPa
Settings	viscosity [mPa·s]
x1 = 0.022	1.045
x1 = 0.0281	1.079

O=[N+]([O-])c1ccccc1O + c1ccncc1
viscosity [mPa·s], [1], 101 kPa
Settings	x1 = 0.06767	x1 = 0.1295	x1 = 0.178	x1 = 0.2717	x1 = 0.3836	x1 = 0.4628	x1 = 0.5508	x1 = 0.6529	x1 = 0.7913	x1 = 0.8557
303.15 K	0.943	1.081	1.211	1.5	1.881	2.15	2.45	2.755	3.145	3.331
313.15 K	0.815	0.93	1.03	1.245	1.51	1.711	1.912	2.145	2.411	2.525
